Measured values from PMC5563514, “Viral polymerase inhibitors T-705 and T-1105 are potential inhibitors of Zika virus replication” (Archives of Virology, 2017).
Read-outs that look alike come from different tables or passages of the source.

How the values were obtained:
[1] = Cytotoxicity against Vero cells (CPE monitoring, neutral red uptake); type: cell-based; settings: African green monkey; for CC50 at 72 h: Vero cells, neutral red uptake, three independent experiments
Description: The cytotoxicity of the compounds against Vero cells was determined by monitoring the CPE. Vero cells (2.5 × 10^4/well) were plated in the wells of a 96-well plate. After 24 h, the cell monolayer was incubated with different concentrations of the test compounds for 72 h at 37 °C under a 5% CO2 atmosphere in a CO2 incubator and then monitored for CPE. The appropriate negative and positive controls were used. A neutral red uptake assay was used to assess cell viability. The half-maximal (50%) cytotoxic concentration (CC50) of each compound was determined from the dose-response curve.

ZIKV strain SZ01 = assay: CPE inhibition assay, anti-ZIKV activity in Vero cells; type: cell-based, Zika virus; settings: for cell death rate compared with mock-treated ZIKV-infected cells: P < 0.05, two-tailed Student's t-test; for EC50: Zika virus, ZIKV strain SZ01, 68.6 TCID50, Vero cells, neutral red uptake, three independent experiments
YFV [2] = settings: cited from earlier work
YFV [3] = settings: at low concentrations; cited from earlier work

Row | Structure (SMILES) | CC50 at 72 h [1] | also measured
1 | CCOc1cnc(O)c(C(N)=O)n1 [Compound 13, 6-ethoxy-3-hydroxypyrazine-2-carboxamide] | > 500 µM | –
2 | NC(=O)c1nccn(COCCO)c1=O [Compound 3, 4-((2-hydroxyethoxy)methyl)-3-oxo-3,4-dihydropyrazine-2-carboxamide] | > 1000 µM | –
3 | NC(=O)c1nc(F)cn(CC(O)COC(c2ccccc2)(c2ccccc2)c2ccccc2)c1=O (stereo not shown) [Compound 8, 6-fluoro-4-(2-hydroxy-3-(trityloxy)propyl)-3-oxo-3,4-dihydropyrazine-2-carboxamide] | > 500 µM | –
4 | NC(=O)c1nc(OCCO)cnc1O [Compound 19, 3-hydroxy-6-(2-hydroxyethoxy) pyrazine-2-carboxamide] | > 1000 µM | –
5 | CCCOc1cnc(O)c(C(N)=O)n1 [Compound 14, 3-hydroxy-6-propoxypyrazine-2-carboxamide] | > 500 µM | –
6 | CCCCCOc1cnc(O)c(C(N)=O)n1 [Compound 17, 3-hydroxy-6-(pentyloxy)pyrazine-2-carboxamide] | 260 ± 51.1 µM | –
7 | NC(=O)c1nc(Br)cnc1O [Compound 11, 6-bromo-3-hydroxypyrazine-2-carboxamide] | > 2000 µM | –
8 | NC(=O)c1nccn(CC(O)CO)c1=O (stereo not shown) [Compound 5, 4-(2,3-dihydroxypropyl)-3-oxo-3,4-dihydropyrazine-2-carboxamide] | > 2000 µM | –
9 | NC(=O)c1nc([N+](=O)[O-])cnc1O [Compound 10, 6-nitropyrazine-3-hydroxy-2-carboxamide] | > 4000 µM | –
10 | NC(=O)c1ncn([C@@H]2O[C@H](CO)[C@@H](O)[C@H]2O)n1 [Ribavirin] | > 2000 µM | effect on ZIKV-induced CPE or cell death (ZIKV strain SZ01; Vero cells, ZIKV strain SZ01): little or no effect; anti-ZIKV activity (ZIKV strain SZ01; at concentrations below 400 μM): not active
11 | CC(=O)OCCOCn1cc(F)nc(C(N)=O)c1=O [Compound 7, 2-((3-carbamoyl-5-fluoro-2-oxopyrazin-1(2H)-yl)methoxy) ethyl acetate] | > 1000 µM | –
12 | CCCCCCCCOc1cnc(O)c(C(N)=O)n1 [Compound 18, 3-hydroxy-6-(octyloxy)pyrazine-2-carboxamide] | 245 ± 17.8 µM | –
13 | COc1cnc(O)c(C(N)=O)n1 [Compound 12, 3-hydroxy-6-methoxypyrazine-2-carboxamide] | > 1000 µM | –
14 | NC(=O)c1nccn(CC(O)COC(c2ccccc2)(c2ccccc2)c2ccccc2)c1=O (stereo not shown) [Compound 4, 4-(2-hydroxy-3-(trityloxy)propyl)-3-oxo-3,4-dihydropyrazine-2-carboxamide] | > 500 µM | –
15 | CC(=O)OCCOCn1ccnc(C(N)=O)c1=O [Compound 2, 2-((3-carbamoyl-2-oxopyrazin-1(2H)-yl)methoxy) ethyl acetate] | > 2000 µM | –
16 | NC(=O)c1nc(F)cn(C2OC(CO)C(O)C2O)c1=O (stereo not shown) [Compound 9, 4-(3,4-dihydroxy-5-(hydroxymethyl)tetrahydrofuran-2-yl)-6-fluoro-3-oxo-3,4-dihydropyrazine-2-carboxamide] | > 1000 µM | –
17 | CC(C)Oc1cnc(O)c(C(N)=O)n1 [Compound 15, 6-isopropoxypyrazine-3-hydroxy-2-carboxamide] | 345 ± 48.4 µM | –
18 | NC(=O)c1nccn(C2OC(CO)C(O)C2O)c1=O (stereo not shown) [Compound 6, 4-(3,4-dihydroxy-5-(hydroxymethyl)tetrahydrofuran-2-yl)-3-oxo-3,4-dihydropyrazine-2-carboxamide] | > 1000 µM | efficacy in a hamster model of YFV infection (YFV [2]): effective; activity in cell culture (YFV [3]): only slight activity
19 | CCCCOc1cnc(O)c(C(N)=O)n1 [Compound 16, 6-butoxy-3-hydroxypyrazine-2-carboxamide] | 310 ± 15.2 µM | –
20 | NC(=O)c1nccnc1O [Compound T-1105, 3-hydroxypyrazine-2-carboxamide] | > 4000 µM | cell death rate compared with mock-treated ZIKV-infected cells (ZIKV strain SZ01): significantly reduced; EC50 (ZIKV strain SZ01): 97.5 ± 6.8 µM
21 | CCn1ccnc(C(N)=O)c1=O [Compound 1, 4-ethyl-3-oxo-3,4-dihydropyrazine-2-carboxamide] | > 1000 µM | –
22 | NC(=O)c1nc(F)c[nH]c1=O [Compound T-705, favipiravir] | > 3000 µM | cell death rate compared with mock-treated ZIKV-infected cells (ZIKV strain SZ01): significantly reduced; EC50 (ZIKV strain SZ01): 111 ± 13.1 µM
23 | CCCCCCCCCCCCCCCCOCCCOP(=O)(O)CO[C@H](CO)Cn1ccc(N)nc1=O [CMX001, brincidofovir] | – | CC50 [1]: 11.3 ± 0.2 µM; anti-ZIKV activity (ZIKV strain SZ01): not active; effect on ZIKV-induced CPE or cell death (ZIKV strain SZ01): little or no effect
24 | COCCOc1cnc(O)c(C(N)=O)n1 [Compound 20, 3-hydroxy-6-(2-methoxyethoxy) pyrazine-2-carboxamide] | > 1000 µM | –
